Measured values: the supplement of paper PMC10307832

What was measured:
Experiment in all cases: relative viability (nuclei count vs DMSO), 5 days (fraction); higher = more cells survive
201T = test system: 201T
How it was run: (§1)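 For relative viability, nuclei counts in treated wells were divided by those in vehicle wells. Lung cancer cell lines had been pin-tool dosed in 1536-well plates the day after seeding and cultured for 5 days, then fixed and stained in one step (final 0.05% Triton X-100, 1% formaldehyde, 1 ug/ml Hoechst) and imaged at 4×. Doses were one drug alone or a fixed anchor-drug dose plus five library-drug doses (not always all listed) in √10 steps, and values are duplicate-plate medians.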

COR-L23 = test system: COR-L23
How it was run: as §1

EPLC-272H = test system: EPLC-272H
How it was run: as §1

H3255 = test system: H3255
How it was run: as §1

HCC-44 = test system: HCC-44
How it was run: as §1

LOU-NH91 = test system: LOU-NH91
How it was run: as §1

NCI-H1650 = test system: NCI-H1650
How it was run: as §1

NCI-H1734 = test system: NCI-H1734
How it was run: as §1

NCI-H1793 = test system: NCI-H1793
How it was run: as §1

NCI-H1993 = test system: NCI-H1993
How it was run: as §1

NCI-H2023 = test system: NCI-H2023
How it was run: as §1

NCI-H2085 = test system: NCI-H2085
How it was run: as §1

NCI-H2170 = test system: NCI-H2170
How it was run: as §1

NCI-H2347 = test system: NCI-H2347
How it was run: as §1

NCI-H2405 = test system: NCI-H2405
How it was run: as §1

NCI-H3122 = test system: NCI-H3122
How it was run: as §1

NCI-H441 = test system: NCI-H441
How it was run: as §1

NCI-H520 = test system: NCI-H520
How it was run: as §1

NCI-H647 = test system: NCI-H647
How it was run: as §1

PC-14 = test system: PC-14
How it was run: as §1

RERF-LC-KJ = test system: RERF-LC-KJ
How it was run: as §1

SW 900 = test system: SW 900
How it was run: as §1

## CC1(C)CCC(c2ccc(Cl)cc2)=C(CN2CCN(c3ccc(C(=O)NS(=O)(=O)c4ccc(N[C@H](CCN5CCOCC5)CSc5ccccc5)c(S(=O)(=O)C(F)(F)F)c4)cc3)CC2)C1 [Navitoclax] + CC(=O)Nc1cccc(-n2c(=O)n(C3CC3)c(=O)c3c(Nc4ccc(I)cc4F)n(C)c(=O)c(C)c32)c1 [Trametinib] (partner 0.02 µM)
201T; first compound 0.005 µM
  relative viability: 0.715
201T; first compound 0.01581 µM
  relative viability: 0.784
201T; first compound 0.05 µM
  relative viability: 0.741
201T; first compound 0.1581 µM
  relative viability: 0.7
201T; first compound 0.5 µM
  relative viability: 0.726
COR-L23; first compound 0.005 µM
  relative viability: 0.6
COR-L23; first compound 0.01581 µM
  relative viability: 0.601
COR-L23; first compound 0.05 µM
  relative viability: 0.514
COR-L23; first compound 0.1581 µM
  relative viability: 0.577
COR-L23; first compound 0.5 µM
  relative viability: 0.61
EPLC-272H; first compound 0.005 µM
  relative viability: 0.239
EPLC-272H; first compound 0.05 µM
  relative viability: 0.272
EPLC-272H; first compound 0.1581 µM
  relative viability: 0.298
EPLC-272H; first compound 0.5 µM
  relative viability: 0.277
H3255; first compound 0.005 µM
  relative viability: 0.529
H3255; first compound 0.01581 µM
  relative viability: 0.7
H3255; first compound 0.05 µM
  relative viability: 0.612
H3255; first compound 0.1581 µM
  relative viability: 0.59
H3255; first compound 0.5 µM
  relative viability: 0.582
HCC-44; first compound 0.005 µM
  relative viability: 1.1
HCC-44; first compound 0.01581 µM
  relative viability: 1.05
HCC-44; first compound 0.05 µM
  relative viability: 0.94
HCC-44; first compound 0.1581 µM
  relative viability: 1.05
HCC-44; first compound 0.5 µM
  relative viability: 1.11
LOU-NH91; first compound 0.005 µM
  relative viability: 0.776
LOU-NH91; first compound 0.01581 µM
  relative viability: 0.829
LOU-NH91; first compound 0.05 µM
  relative viability: 0.607
LOU-NH91; first compound 0.1581 µM
  relative viability: 0.685
LOU-NH91; first compound 0.5 µM
  relative viability: 0.33
NCI-H1650; first compound 0.005 µM
  relative viability: 0.646
NCI-H1650; first compound 0.01581 µM
  relative viability: 0.723
NCI-H1650; first compound 0.05 µM
  relative viability: 0.489
NCI-H1650; first compound 0.1581 µM
  relative viability: 0.439
NCI-H1650; first compound 0.5 µM
  relative viability: 0.45
NCI-H1734; first compound 0.005 µM
  relative viability: 0.644
NCI-H1734; first compound 0.01581 µM
  relative viability: 0.776
NCI-H1734; first compound 0.1581 µM
  relative viability: 0.625
NCI-H1734; first compound 0.5 µM
  relative viability: 0.646
NCI-H1793; first compound 0.005 µM
  relative viability: 0.373
NCI-H1793; first compound 0.01581 µM
  relative viability: 0.439
NCI-H1793; first compound 0.1581 µM
  relative viability: 0.467
NCI-H1793; first compound 0.5 µM
  relative viability: 0.402
NCI-H1993; first compound 0.005 µM
  relative viability: 0.521
NCI-H1993; first compound 0.01581 µM
  relative viability: 0.513
NCI-H1993; first compound 0.05 µM
  relative viability: 0.508
NCI-H1993; first compound 0.1581 µM
  relative viability: 0.454
NCI-H1993; first compound 0.5 µM
  relative viability: 0.642
NCI-H2023; first compound 0.005 µM
  relative viability: 0.556
NCI-H2023; first compound 0.01581 µM
  relative viability: 0.724
NCI-H2023; first compound 0.05 µM
  relative viability: 0.554
NCI-H2023; first compound 0.1581 µM
  relative viability: 0.5
NCI-H2023; first compound 0.5 µM
  relative viability: 0.547
NCI-H2085; first compound 0.005 µM
  relative viability: 0.567
NCI-H2085; first compound 0.01581 µM
  relative viability: 0.645
NCI-H2085; first compound 0.05 µM
  relative viability: 0.402
NCI-H2085; first compound 0.1581 µM
  relative viability: 0.621
NCI-H2085; first compound 0.5 µM
  relative viability: 0.552
NCI-H2170; first compound 0.005 µM
  relative viability: 0.926
NCI-H2170; first compound 0.01581 µM
  relative viability: 0.984
NCI-H2170; first compound 0.05 µM
  relative viability: 0.892
NCI-H2170; first compound 0.1581 µM
  relative viability: 0.887
NCI-H2170; first compound 0.5 µM
  relative viability: 0.874
NCI-H2347; first compound 0.005 µM
  relative viability: 0.296
NCI-H2347; first compound 0.01581 µM
  relative viability: 0.314
NCI-H2347; first compound 0.05 µM
  relative viability: 0.26
NCI-H2347; first compound 0.1581 µM
  relative viability: 0.32
NCI-H2347; first compound 0.5 µM
  relative viability: 0.259
NCI-H2405; first compound 0.005 µM
  relative viability: 0.535
NCI-H2405; first compound 0.01581 µM
  relative viability: 0.75
NCI-H2405; first compound 0.05 µM
  relative viability: 0.67
NCI-H2405; first compound 0.1581 µM
  relative viability: 0.596
NCI-H2405; first compound 0.5 µM
  relative viability: 0.661
NCI-H3122; first compound 0.005 µM
  relative viability: 0.243
NCI-H3122; first compound 0.01581 µM
  relative viability: 0.221
NCI-H3122; first compound 0.05 µM
  relative viability: 0.217
NCI-H3122; first compound 0.1581 µM
  relative viability: 0.222
NCI-H3122; first compound 0.5 µM
  relative viability: 0.211
NCI-H441; first compound 0.005 µM
  relative viability: 0.534
NCI-H441; first compound 0.01581 µM
  relative viability: 0.616
NCI-H441; first compound 0.05 µM
  relative viability: 0.349
NCI-H441; first compound 0.1581 µM
  relative viability: 0.448
NCI-H441; first compound 0.5 µM
  relative viability: 0.553
NCI-H520; first compound 0.005 µM
  relative viability: 0.673
NCI-H520; first compound 0.01581 µM
  relative viability: 0.653
NCI-H520; first compound 0.05 µM
  relative viability: 0.631
NCI-H520; first compound 0.1581 µM
  relative viability: 0.603
NCI-H520; first compound 0.5 µM
  relative viability: 0.693
NCI-H647; first compound 0.005 µM
  relative viability: 0.345
NCI-H647; first compound 0.01581 µM
  relative viability: 0.521
NCI-H647; first compound 0.05 µM
  relative viability: 0.331
NCI-H647; first compound 0.1581 µM
  relative viability: 0.534
NCI-H647; first compound 0.5 µM
  relative viability: 0.408
PC-14; first compound 0.005 µM
  relative viability: 0.804
PC-14; first compound 0.01581 µM
  relative viability: 1.21
PC-14; first compound 0.05 µM
  relative viability: 0.808
PC-14; first compound 0.1581 µM
  relative viability: 0.801
PC-14; first compound 0.5 µM
  relative viability: 0.695
RERF-LC-KJ; first compound 0.005 µM
  relative viability: 0.823
RERF-LC-KJ; first compound 0.01581 µM
  relative viability: 0.847
RERF-LC-KJ; first compound 0.05 µM
  relative viability: 0.969
RERF-LC-KJ; first compound 0.1581 µM
  relative viability: 0.938
RERF-LC-KJ; first compound 0.5 µM
  relative viability: 0.985
SW 900; first compound 0.005 µM
  relative viability: 0.706
SW 900; first compound 0.01581 µM
  relative viability: 0.981
SW 900; first compound 0.1581 µM
  relative viability: 0.828
SW 900; first compound 0.5 µM
  relative viability: 0.81
